Results: patent publication US20120088663A1, “Triazole Compounds Carrying a Sulfur Substituent” (BASF SE, priority 2009, published 2012)

assay: Log P, partition coefficient between water and octanol; type: physicochemical
Excerpt: Log P is the partition coefficient between water and octanol.

| logP | Compound |
| --- | --- |
| 2.9 | CC1COC(Cn2ncnc2S)(c2cc(F)c(Oc3ccccc3)cc2F)O1 (stereo not drawn) [Example 64, 2-{2-[2,5-Difluoro-4-phenoxy-phenyl]-4-methyl-[1,3]dioxolan-2-yl-methyl}-2H-[1,2,4]triazole-3-thiol] |
| 4.2 | CC1COC(Cn2cncn2)(c2ccc(Oc3ccc(Cl)cc3)c(F)c2)O1 (stereo not drawn) [Example 32, 1-{2-[4-(4-Chloro-phenoxy)-3-fluoro-phenyl]-4-methyl-[1,3]dioxolan-2-ylmethyl}-1H-[1,2,4]triazole] |
| 3.5 | CC1COC(Cn2ncnc2S)(c2ccc(Oc3ccc(Cl)cc3)cc2F)O1 (stereo not drawn) [Example 70, 2-{2-[4-(4-Chloro-phenoxy)-2-fluoro-phenyl]-4-methyl-[1,3]dioxolan-2-yl-methyl}-2H-[1,2,4]triazole-3-thiol] |
| 3.6 | CC1COC(Cn2ncnc2S)(c2ccc(Oc3ccc(Cl)cc3)c(F)c2)O1 (stereo not drawn) [Example 69, 2-{2-[4-(4-Chloro-phenoxy)-3-fluoro-phenyl]-4-methyl-[1,3]dioxolan-2-yl-methyl}-2H-[1,2,4]triazole-3-thiol] |
| 5.4 | CCCC1COC(Cn2cncn2)(c2ccc(Oc3ccc(Cl)cc3)cc2Cl)O1 (stereo not drawn) [Example 39, 1-{2-[2-Chloro-4-(4-chloro-phenoxy)-phenyl]-4-propyl-[1,3]dioxolan-2-ylmethyl}-1H-[1,2,4]triazole] |
| 5 | CCC1COC(Cn2cncn2)(c2ccc(Oc3ccc(Cl)cc3)cc2Cl)O1 (stereo not drawn) [Example 38, 1-{2-[2-Chloro-4-(4-chloro-phenoxy)-phenyl]-4-ethyl-[1,3]dioxolan-2-ylmethyl}-1H-[1,2,4]triazole] |
| 3.7 | CC1COC(Cn2cncn2)(c2cc(F)c(Oc3ccccc3)c(F)c2)O1 (stereo not drawn) [Example 41, 1-{2-[3,5-Difluoro-4-phenoxy-phenyl]-4-methyl-[1,3]dioxolan-2-ylmethyl}-1H-[1,2,4]triazole] |
| 3.2 | CC1COC(Cn2ncnc2S)(c2cc(F)c(Oc3ccc(Cl)cc3)cc2F)O1 (stereo not drawn) [Example 63, 2-{2-[4-(4-Chloro-phenoxy)-2,5-difluoro-phenyl]-4-methyl-[1,3]dioxolan-2-ylmethyl}-2H-[1,2,4]triazole-3-thiol] |

assay: not given

| melting point [°C] | Compound |
| --- | --- |
| 102 to 104 | CC1COC(Cn2cncn2)(c2cc(F)c(Oc3ccccc3)cc2F)O1 (stereo not drawn) [Example 40, 1-{2-[3,6-Difluoro-4-phenoxy-phenyl]-4-methyl-[1,3]dioxolan-2-ylmethyl}-1H-[1,2,4]triazole] |
| 139 to 141 | CC1COC(Cn2ncnc2S)(c2cc(F)c(Oc3ccccc3)c(F)c2)O1 (stereo not drawn) [Example 68, 2-{2-[3,5-Difluoro-4-phenoxy-phenyl]-4-methyl-[1,3]dioxolan-2-yl-methyl}-2H-[1,2,4]triazole-3-thiol] |
| 119.9 | CC1COC(Cn2cncn2)(c2ccc(Oc3cc(F)ccc3F)cc2Cl)O1 (stereo not drawn) [Example 26, 1-{2-[2-Chloro-4-(2,5-difluoro-phenoxy)-phenyl]-4-methyl-[1,3]dioxolan-2-ylmethyl}-1H-[1,2,4]triazole] |
| 108 to 110 | CC1COC(Cn2cncn2)(c2ccc(Oc3ccccc3)c(F)c2)O1 (stereo not drawn) [Example 35, 1-{2-[3-Fluoro-4-phenoxy-phenyl]-4-methyl-[1,3]dioxolan-2-ylmethyl}-1H-[1,2,4]triazole] |
| 112 to 114 | CC1COC(Cn2cncn2)(c2ccc(Oc3c(F)cccc3Cl)cc2)O1 (stereo not drawn) [Example 6, 1-{2-[4-(6-Chloro-2-fluoro-phenoxy)-phenyl]-4-methyl-[1,3]dioxolan-2-ylmethyl}-1H-[1,2,4]triazole] |
| 153 to 155 | COCC1COC(Cn2ncnc2S)(c2ccc(Oc3ccc(Cl)cc3)cc2Cl)O1 (stereo not drawn) [Example 66, 2-{2-[2-Chloro-4-(4-chloro-phenoxy)-phenyl]-4-methoxymethyl-[1,3]dioxolan-2-ylmethyl}-2H-[1,2,4]triazole-3-thiol] |
| 83 to 86 | CC1COC(Cn2cncn2)(c2ccc(Oc3ccc(F)cc3F)cc2)O1 (stereo not drawn) [Example 4, 1-{2-[4-(2,4-Difluoro-phenoxy)-phenyl]-4-methyl-[1,3]dioxolan-2-ylmethyl}-1H-[1,2,4]triazole] |
| 86 to 88 | CC1COC(Cn2cncn2)(c2cc(F)c(Oc3ccc(Cl)cc3)cc2F)O1 (stereo not drawn) [Example 37, 1-{2-[4-(4-Chloro-phenoxy)-2,5-difluoro-phenyl]-4-methyl-[1,3]dioxolan-2-ylmethyl}-1H-[1,2,4]triazole] |
| 62 to 64 | CC1COC(Cn2ncnc2S)(c2ccc(Oc3ccccc3)c(F)c2)O1 (stereo not drawn) [Example 67, 2-{2-[3-Fluoro-4-phenoxy-phenyl]-4-methyl-[1,3]dioxolan-2-yl-methyl}-2H-[1,2,4]triazole-3-thiol] |
| 113 to 115 | CC1COC(Cn2cncn2)(c2ccc(Oc3ccc(Cl)cc3F)cc2)O1 (stereo not drawn) [Example 3, 1-{2-[4-(4-Chloro-2-fluoro-phenoxy)-phenyl]-4-methyl-[1,3]dioxolan-2-ylmethyl}-1H-[1,2,4]triazole] |
| 112 to 114 | CCC1COC(Cn2cncn2)(c2ccc(Oc3ccc(F)cc3F)cc2)O1 (stereo not drawn) [Example 5, 1-{2-[4-(2,4-Difluoro-phenoxy)-phenyl]-4-ethyl-[1,3]dioxolan-2-ylmethyl}-1H-[1,2,4]triazole] |
| 90 to 95 | CCC1COC(Cn2cncn2)(c2ccc(Oc3c(F)cccc3F)cc2)O1 (stereo not drawn) [Example 9, 1-{2-[4-(2,6-Difluoro-phenoxy)-phenyl]-4-ethyl-[1,3]dioxolan-2-ylmethyl}-1H-[1,2,4]triazole] |
| 105 to 106 | CCCC1COC(Cn2ncnc2S)(c2ccc(Oc3ccc(Cl)cc3)cc2Cl)O1 (stereo not drawn) [Example 65, 2-{2-[2-Chloro-4-(4-chloro-phenoxy)-phenyl]-4-propyl-[1,3]dioxolan-2-yl-methyl}-2H-[1,2,4]triazole-3-thiol] |
